From patent publication US8466193B2, “Selective inhibitors of histone deacetylase” (Pharmacyclics, Inc., priority 2008, dated 2013)

Assay: Pharmacokinetic analysis in male rats, oral gavage
Assay type: in vivo
Conditions: CD IGS (Sprague-Dawley derived), rat, plasma, orally at 3 mg/kg, compounds administered in combination
Procedure: This study, performed in male rats with test compounds (Compound 303 and Compound 316), was designed to provide preliminary information on their pharmacokinetics. The test compounds were administered in combination by oral gavage.
The specifications for rats used on this study are as follows: • Strain: CD® IGS rats (Sprague-Dawley derived) • Source: Charles River Laboratories • Surgical modification for oral dosing: One portal vein cannula and one jugular vein cannula • Body weight range at dosing 350 to 375 g
The rats were acclimatized to laboratory conditions for at least 24 hours before dosing. The evening before dosing, food was withheld from the rats and was returned immediately following the 3-hour blood collection time point. Water was provided ad libitum. The rats were housed individually in translucent polycarbonate cages.
Test compounds were prepared as 3.0 mg/ml solutions (1% MC/0.4% Cr EL in WFI).
Rats were administered a single dose of test compound in combination by oral gavage. Dose volumes were adjusted based on body weight data collected immediately prior to dosing.
The dose volume was 1 ml/kg and the nominal dosage was 3 mg/kg.
Blood samples were collected at 5 minutes, 20 minutes, 1 hour, 3 hours, 6 hours, 9 hours, and 24 hours post-dosing from orally dosed rats. The samples were collected into plasma separator Microtainer tubes with anticoagulant (lithium heparin). Plasma samples were prepared by centrifugation (5 min at 5000×g), and at least 100 μL were transferred to storage tubes and frozen on dry ice. Samples were maintained at approximately −75 C until prepared for analysis.
Plasma samples were thawed and 75 uL aliquots were transferred to centrifuge tubes to which 10 μL aliquots of internal standard solution (0.5 μg/mL) were added. The samples were not diluted with blank plasma prior to further processing. Soluble proteins were precipitated by the addition of 300 μL of methanol, followed by centrifugation (20 min at 16,000×g). The samples were evaporated to dryness and reconstituted in 100 μL of water containing 0.2% formic acid and 10% methanol. All samples were loaded onto an autosampler maintained at 6° C. and evaluated for concentrations of test compound using LC-MS/MS. lasma concentration data were evaluated using the computer program WinNonlin (Professional Edition, Pharsight Corporation, version 5.01). […]
Pan HDAC inhibitor 3-((dimethylamino)methyl)-N-(2-(4-(hydroxycarbamoyl)phenoxy)ethyl)benzofuran-2-carboxamide was added to the cassette to serve as a standard since the pharmacokinetics of this compound have been determined previously in rats. The UC's determined for rats administered Compound 303 and Compound 316 orally at 3 mg/kg were 1.42, and 5.36 μg·h/mL, respectively. […]

SMILES: O=C(NO)c1ccc2ccn(CCOc3ccccc3)c2c1 [Compound 316, N-hydroxy-1-(2-phenoxyethyl)-1H-indole-6-carboxamide]
- AUC: 5360 ng·h/mL
- Cmax: 828 ng/mL
